Molecular target: T1, Nanoluciferase-BRD9 fusion protein (3×FLAG-NLuc-BRD9) in SYO-1 cells (Homo sapiens, UniProt Q9H8M2)
T1 construct: expressed in transfected cells; host or cells: SYO-1
T1 sequence (Q9H8M2 1-597): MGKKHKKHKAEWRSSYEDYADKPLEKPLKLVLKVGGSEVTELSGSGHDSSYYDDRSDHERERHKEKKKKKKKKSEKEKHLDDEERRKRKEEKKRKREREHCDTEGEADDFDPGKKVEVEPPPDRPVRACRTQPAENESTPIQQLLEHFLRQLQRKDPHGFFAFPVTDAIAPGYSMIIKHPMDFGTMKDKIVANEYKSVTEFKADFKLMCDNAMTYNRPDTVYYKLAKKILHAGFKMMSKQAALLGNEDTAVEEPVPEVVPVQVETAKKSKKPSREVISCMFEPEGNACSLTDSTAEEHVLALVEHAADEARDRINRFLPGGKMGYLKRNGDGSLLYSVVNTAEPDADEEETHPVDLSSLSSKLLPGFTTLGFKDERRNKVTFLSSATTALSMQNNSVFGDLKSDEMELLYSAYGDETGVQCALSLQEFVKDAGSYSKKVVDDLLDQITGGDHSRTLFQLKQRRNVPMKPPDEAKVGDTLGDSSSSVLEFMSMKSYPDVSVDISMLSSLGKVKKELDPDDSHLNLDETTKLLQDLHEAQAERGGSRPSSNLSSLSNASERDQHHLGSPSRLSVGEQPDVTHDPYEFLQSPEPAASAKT
Test: SYO1 BRD9 NanoLuc Degradation Assay
Type: cell-based
Details: Table 6B; SYO-1 cells expressing 3×FLAG-NLuc-BRD9, 6 hours incubation, 1 μM top dose; read-out: SYO1 BRD9-NanoLuc degradation IC50
Summary of the method: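 NanoLuc signal, read by Nano-Glo luminescence after 6 h compound exposure, gives % inhibition against DMSO-treated cells (high control) and cells given 1 μM of a standard BRD9 degrader (low control). Test compounds ran as 10-point 3-fold series, top 1 μM final, in duplicate on SYO-1 cells stably expressing 3×FLAG-NLuc-BRD9.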

| DC50 [nM] | Compound |
| --- | --- |
| ≥ 1000 | COc1cc(-c2cn(C)c(=O)c3ccc(N4CCC4)cc23)cc(OC)c1CN1CCC(N2CCC(c3ccc4c(c3)CN(C3CCC(=O)NC3=O)C4=O)CC2)CC1 (centres unmarked) [Compound D183] |
| < 10 | COc1cc2c(-c3cc(OC)c(CN4CC(CN5CCC6(CC5)CN(c5ccc7c(c5)C(=O)N(C5CCC(=O)NC5=O)C7)C6)C4)c(OC)c3)cn(C)c(=O)c2cn1 (centres unmarked) [Compound D184] |

Same assay, conditions: Table 6C; SYO-1 cells expressing 3×FLAG-NLuc-BRD9, 6 hours incubation, 1 μM top dose; read-out: SYO1 BRD9-NanoLuc degradation IC50

| Compound | DC50 [nM] |
| --- | --- |
| COc1cc(-c2cn(C)c(=O)c3cnc(N4CCC4)cc23)cc(OC)c1CN1CC(C(C)(C)N2CCC3(CC2)CN(c2ccc4c(c2)CN(C2CCC(=O)NC2=O)C4=O)C3)C1 (centres unmarked) [Compound D185] | < 10 |
| COc1cc(-c2cn(C)c(=O)c3cnc(N4CCC4)cc23)cc(OC)c1CN1CCC(CN2CCC3(CC2)CC(Oc2ccc4c(c2)C(=O)N(C2CCC(=O)NC2=O)C4)C3)CC1 (centres unmarked) [Compound D187] | < 10 |
| COc1cc(-c2cn(C)c(=O)c3cnc(S(N)(=O)=O)cc23)cc(OC)c1CN1CCC(CN2CCC3(CC2)CC(Oc2ccc4c(c2)C(=O)N(C2CCC(=O)NC2=O)C4)C3)CC1 (centres unmarked) [Compound D188] | < 10 |
| COc1cc(-c2cn(C)c(=O)c3cnc(N(C)C)cc23)cc(Cl)c1C(=O)N1CCN(CCC2CCN(c3ccc4c(c3)CN(C3CCC(=O)NC3=O)C4=O)CC2)CC1 (centres unmarked) [Compound D189] | < 10 |
| COc1cc(-c2nn(C)c(=O)c3cnc(N4CCC4)cc23)cc(OC)c1CN1CCC(CN2CCC3(CC2)CC(Oc2ccc4c(c2)C(=O)N(C2CCC(=O)NC2=O)C4)C3)CC1 (centres unmarked) [Compound D191] | 100 to 1000 |
| COc1cc(-c2cn(C)c(=O)c3cnc(C4CC4)cc23)cc(OC)c1CN1CC(CN2CCC3(CC2)CN(c2ccc4c(c2)C(=O)N(C2CCC(=O)NC2=O)C4)C3)C1 (centres unmarked) [Compound D193] | < 10 |
| COc1cc(-c2cn(C)c(=O)c3cnc(N4CCOCC4)cc23)cc(OC)c1CN1CCC(CN2CCC3(CC2)CC(Oc2ccc4c(c2)C(=O)N(C2CCC(=O)NC2=O)C4)C3)CC1 (centres unmarked) [Compound D194] | < 10 |
| COc1cc(-c2cn(C)c(=O)c3cnc(C4CC4)cc23)cc(OC)c1CN1CCC(C(N2CCC3(CC2)CC(Oc2ccc4c(c2)C(=O)N(C2CCC(=O)NC2=O)C4=O)C3)C(F)(F)F)CC1 (centres unmarked) [Compound D195] | < 10 |
| [2H]C([2H])([2H])N(c1cc2c(-c3cc(OC)c(CN4CCN(CCC5CCN(c6ccc7c(c6)C(=O)N(C6CCC(=O)NC6=O)C7)CC5)CC4)c(OC)c3)cn(C)c(=O)c2cn1)C([2H])([2H])[2H] (centres unmarked) [Compound D197] | < 10 |
| [2H]C([2H])([2H])Oc1cc2c(-c3cc(OC)c(CN4CCN(CCC5CCN(c6ccc7c(c6)C(=O)N(C6CCC(=O)NC6=O)C7)CC5)CC4)c(OC)c3)cn(C)c(=O)c2cn1 (centres unmarked) [Compound D198] | < 10 |
| COc1cc2c(-c3cc(OC)c(CN4CCC(CCN5CCC6(CC5)CN(c5ccc7c(c5)C(=O)N(C5CCC(=O)NC5=O)C7)C6)CC4)c(OC)c3)cn(C)c(=O)c2cn1 (centres unmarked) [Compound D199] | < 10 |
| COc1cc(-c2cn(C)c(=O)c3cnc(N4CC5(CC5)C4)cc23)cc(OC)c1CN1CC(CN2CCC3(CC2)CN(c2ccc4c(c2)C(=O)N(C2CCC(=O)NC2=O)C4)C3)C1 (centres unmarked) [Compound D201] | < 10 |
| CCOC1CC1c1cc2c(-c3cc(OC)c(CN4CCN(CCC5CCN(c6ccc7c(c6)C(=O)N(C6CCC(=O)NC6=O)C7)CC5)CC4)c(OC)c3)cn(C)c(=O)c2cn1 (centres unmarked) [Compound D203] | < 10 |
| CCOC1CC1c1cc2c(-c3cc(OC)c(CN4CCN(CCC5CCN(c6ccc7c(c6)C(=O)N(C6CCC(=O)NC6=O)C7=O)CC5)CC4)c(OC)c3)cn(C)c(=O)c2cn1 (centres unmarked) [Compound D204] | < 10 |
| COc1cc(-c2cn(C)c(=O)c3cnc(N4CC5(CC5)C4)cc23)cc(OC)c1CN1CCC(CN2CCC3(CC2)CN(c2ccc4c(c2)C(=O)N(C2CCC(=O)NC2=O)C4)C3)CC1 (centres unmarked) [Compound D205] | 10 to 100 |
| COc1cc(-c2cn(C)c(=O)c3cnc(N4CC(F)C4)cc23)cc(OC)c1CN1CCC(CN2CCC3(CC2)CN(c2ccc4c(c2)C(=O)N(C2CCC(=O)NC2=O)C4)C3)CC1 (centres unmarked) [Compound D206] | < 10 |
| COc1cc(-c2cn(C)c(=O)c3cnc(N4CC[C@@H]4C)cc23)cc(OC)c1CN1CCC(CN2CCC3(CC2)CN(c2ccc4c(c2)C(=O)N(C2CCC(=O)NC2=O)C4)C3)CC1 (some centres unmarked) [Compound D207] | < 10 |
| COc1cc(-c2cn(C)c(=O)c3cnc(N4CC(C)(OC)C4)cc23)cc(OC)c1CN1CCC(CN2CCC3(CC2)CN(c2ccc4c(c2)C(=O)N(C2CCC(=O)NC2=O)C4)C3)CC1 (centres unmarked) [Compound D209] | < 10 |
| COc1cc(-c2cn(C)c(=O)c3cnc(N4CC(C)(OC)C4)cc23)cc(OC)c1CN1CC(CN2CCC3(CC2)CN(c2ccc4c(c2)C(=O)N(C2CCC(=O)NC2=O)C4)C3)C1 (centres unmarked) [Compound D210] | < 10 |
| COc1cc(-c2cn(C)c(=O)c3cnc(N4CC(F)(F)C4)cc23)cc(OC)c1CN1CC(CN2CCC3(CC2)CN(c2ccc4c(c2)C(=O)N(C2CCC(=O)NC2=O)C4)C3)C1 (centres unmarked) [Compound D211] | < 10 |
| COCC1CN(CCC2CCN(c3ccc4c(c3)C(=O)N(C3CCC(=O)NC3=O)C4=O)CC2)CCN1Cc1c(OC)cc(-c2cn(C)c(=O)c3cnc(N4CCC4)cc23)cc1OC (centres unmarked) [Compound D215] | < 10 |
| COc1cc(-c2cn(C)c(=O)c3cnc(N4CCC4)c(F)c23)cc(OC)c1CN1CC(CN2CCC3(CC2)CN(c2ccc4c(c2)C(=O)N(C2CCC(=O)NC2=O)C4)C3)C1 (centres unmarked) [Compound D221] | < 10 |
| [2H]C([2H])([2H])n1cc(-c2cc(OC)c(CN3CCN(CCC4CCN(c5ccc6c(c5)CN(C5CCC(=O)NC5=O)C6=O)CC4)CC3)c(OC)c2)c2cc(N(C)C)ncc2c1=O (centres unmarked) [Compound D223] | < 10 |

Second part, the molecule after the results:

| DC50 [nM] | Compound |
| --- | --- |
| < 10 | COc1cc(-c2cn(C)c(=O)c3cnc(C(F)(F)F)cc23)cc(OC)c1CN1CC(CN2CCC3(CC2)CN(c2ccc4c(c2)C(=O)N(C2CCC(=O)NC2=O)C4)C3)C1 (centres unmarked) [Compound D186] |
| < 10 | COc1cc(-c2cn(C)c(=O)c3cnc(C(C)(C)CO)cc23)cc(OC)c1CN1CCC(CN2CCC3(CC2)CC(Oc2ccc4c(c2)C(=O)N(C2CCC(=O)NC2=O)C4)C3)CC1 (centres unmarked) [Compound D190] |
| < 10 | COc1cc(-c2cn(C)c(=O)c3cnc(N4CCC4)cc23)cc(OC)c1CN1CC(C(C)(C)N2CCC3(CC2)CN(c2ccc4c(c2)C(=O)N(C2CCC(=O)NC2=O)C4)C3)C1 (centres unmarked) [Compound D192] |
| < 10 | COc1cc(-c2cn(C)c(=O)c3cnc(N4CCOCC4)cc23)cc(OC)c1CN1CCC(C(N2CCC3(CC2)CC(Oc2ccc4c(c2)C(=O)N(C2CCC(=O)NC2=O)C4=O)C3)C(F)(F)F)CC1 (centres unmarked) [Compound D196] |
| < 10 | COc1cc(-c2cn(C)c(=O)c3cnc(N4CC(F)C4)cc23)cc(OC)c1CN1CC(CN2CCC3(CC2)CN(c2ccc4c(c2)C(=O)N(C2CCC(=O)NC2=O)C4)C3)C1 (centres unmarked) [Compound D200] |
| < 10 | COc1cc(-c2cn(C)c(=O)c3cnc(N4CCC4)cc23)cc(OC)c1CN(C)c1ccc2c(c1)CN(C1CCC(=O)NC1=O)C2=O (centres unmarked) [Compound D202] |
| < 10 | COc1cc(-c2cn(C)c(=O)c3cnc(N4CC[C@H]4C)cc23)cc(OC)c1CN1CCC(CN2CCC3(CC2)CN(c2ccc4c(c2)C(=O)N(C2CCC(=O)NC2=O)C4)C3)CC1 (some centres unmarked) [Compound D208] |
| < 10 | COc1cc(-c2cn(C)c(=O)c3cnc(N4CC[C@H]4C)cc23)cc(OC)c1CN1CC(CN2CCC3(CC2)CN(c2ccc4c(c2)C(=O)N(C2CCC(=O)NC2=O)C4)C3)C1 (some centres unmarked) [Compound D212] |
| < 10 | COc1cc(-c2cn(C)c(=O)c3cnc(N4CC[C@@H]4C)cc23)cc(OC)c1CN1CC(CN2CCC3(CC2)CN(c2ccc4c(c2)C(=O)N(C2CCC(=O)NC2=O)C4)C3)C1 (some centres unmarked) [Compound D213] |
| < 10 | COc1cc(-c2cn(C)c(=O)c3cnc(C(C)(C)C)cc23)cc(OC)c1CN1CCC(CN2CCC3(CC2)CC(Oc2ccc4c(c2)C(=O)N(C2CCC(=O)NC2=O)C4)C3)CC1 (centres unmarked) [Compound D214] |
| < 10 | COc1cc(-c2cn(C)c(=O)c3cnc(C4(C)CC4)cc23)cc(OC)c1CN1CCC(CCN2CCN(c3ccc4c(c3)C(=O)N(C3CCC(=O)NC3=O)C4=O)CC2)CC1 (centres unmarked) [Compound D216] |
| < 10 | COc1cc2c(-c3cc(OC)c(CN4CCN(c5ccc6c(c5)C(=O)N(C5CCC(=O)NC5=O)C6)CC4)c(OC)c3)cn(C)c(=O)c2cn1 (centres unmarked) [Compound D217] |
| < 10 | COc1cc(-c2cn(C)c(=O)c3cnc(N4CCC4)cc23)cc(OC)c1CN1CCC(CN2CCC3(CC2)CN(c2ccc4c(c2)CN(C2CCC(=O)NC2=O)C4=O)C3)CC1 (centres unmarked) [Compound D218] |
| < 10 | COc1cc(-c2cn(C)c(=O)c3cnc(C4CC4)cc23)cc(OC)c1CN1CCC2(CC1)CN(c1ccc3c(c1)C(=O)N(C1CCC(=O)NC1=O)C3=O)C2 (centres unmarked) [Compound D219] |
| < 10 | COc1cc(-c2cn(C)c(=O)c3cnc(C4CC4)cc23)cc(OC)c1CN1CCC2(CC1)CN(c1ccc3c(c1)CN(C1CCC(=O)NC1=O)C3=O)C2 (centres unmarked) [Compound D220] |
| < 10 | COc1cc(-c2cn(C)c(=O)c3cnc(N4CCC4)cc23)cc(OC)c1CN1[C@H](C)CN(CCC2CCN(c3ccc4c(c3)C(=O)N(C3CCC(=O)NC3=O)C4=O)CC2)C[C@H]1C (some centres unmarked) [Compound D222] |
